# From PMC9881724, “Rational design of potent ultrashort antimicrobial peptides with programmable assembly into nanostructured hydrogels” (Frontiers in Chemistry, 2023)
# Residues, ends and D or L forms follow the SMILES beside them. *: point of attachment. Fmoc = O=C(OCC1c2ccccc2-c2ccccc21)*
# Columns and labels:
# E. faecium = assay type: cell-based; settings: 1 h
# Description: Minimal inhibitory concentration (MIC) assays were performed following a standard broth dilution procedure ([Wiegand et al., 2008]) in which bacteria were grown in MHB and fungal in SB overnight. The overnight bacterial suspension was adjusted to 10^6 CFU/ml in broth according to MacFarlane standard. Bacterial solutions were mixed in 96-well plates with the peptide solution to reach final concentrations of peptides ranging from 1,082 to 2 μM, including inhibition control (Indolicidin), growth control, and sterility control. Within each MIC experiment, each peptide was tested in triplicate across this concentration range and repeated on 3 independent days. Media and glassware were sterilized at 120°C for 1 h with an autoclave prior to all bioassays.
# [1] = tested on: C. auris Fluconazole resistant; test: Fluorescence assisted cell sorting (FACS) live/dead assay; assay type: cell-based; settings: overnight 36-37°C, SYTO 9/propidium iodide
# Description: (§1) FACS assay was performed following the LIVE/DEAD™ BacLight™ Bacterial Viability Kit (L7012) instructions and stablished procedures ([Berney et al., 2007]; [Robertson et al., 2019]), in which bacteria were grown in Mueller Hinton Broth and fungal in Sabouraud Broth overnight to a late–log phase. Then, 900 μl of the cell suspension was added to 100 μl of five different concentrations of peptides solution and incubated overnight at 36°C–37°C. On the next day, the suspension was centrifuged at 10,000 × g for 10 min and the supernatant fraction was removed from the samples. The pellets were resuspended with 1 ml of PBS buffer and incubated at room temperature for 1 h, mixing every 15 min. The sample was centrifuged at 10,000 × g for 10 min, the supernatant removed followed by the resuspension of the pellet in 1 ml of PBS. The washing steps were repeated twice. To perform the staining of the cells, equal volumes of SYTO® 9 and propidium iodide were combined in a microfuge tube and 3 µl of the dye mixture was added to each microbial suspension. The sample was incubated at room temperature in the dark for 15 min. The evaluation of cell viability was performed through the calculation of the red to green fluorescence ratio to determine the proportion of live cells in a sample.
# E. coli = test: as above; assay type: cell-based; settings: overnight 36-37°C, SYTO 9/propidium iodide
# Description: as §1
# [2] = tested on: S. aureus Methicillin resistant; test: as above; assay type: cell-based; settings: overnight 36-37°C, SYTO 9/propidium iodide
# Description: as §1
# [3] = Peptide assembly state from ATR-FTIR arginine side-chain vibrations; assay type: physicochemical; settings: ATR-FTIR 25°C
# Description: (§2) The peptides were prepared by mixing the lyophilized peptide directly with type 1 water, vortexed for a few seconds to obtain an isotropic solution and stored at 4°C–5°C in between experiments.
# Data was recorded at 25°C using a Tensor-II spectrometer (Bruker, Germany) equipped with a Bio-ATR attachment (Bruker, Germany) by directly depositing the samples on the ATR crystal as previous reported by our group ([Dharmadana et al., 2019]). Spectra were collected over 32 scans within 4,000–400 cm^−1 wavenumber range at a resolution of 4 cm^−1. Associated water signal was subtracted from the resulting spectra, and secondary derivatives were calculated using OPUS software (Bruker, Germany).
# [4] = Self-assembly and hydrogelation in water (electron microscopy, rheology, observation); assay type: physicochemical
# Description: as §2
# Carbon-coated grids (EMSCF200H-CU-TH, ProSciTech) were glow discharged to render them hydrophilic. A 1–5 μl aliquot of sample was applied to an upturned grid held in anti-capillary forceps, over moist filter paper, and left for 5 min over moistened filter paper to adsorb. Excess liquid was then removed with filter paper, the grid was then inverted onto a drop of 2% PTA stain, pH 6.9 on Parafilm, for 1 min. […] Images were recorded using a FEI Eagle 4 k × 4 k CCD camera and AnalySIS v3.2 camera control software (Olympus).
# A laboratory-built humidity-controlled vitrification system was used to prepare the samples for Cryo-TEM. […] Images were recorded using a FEI Eagle 4 k × 4 k CCD camera at a range of magnifications using AnalySIS v3.2 camera control software (Olympus).
# Rheology was undertaken on a calibrated rheometer (Anton Paar MCR 301, Anton Paar Pty. Ltd. Austria) fitted with a 15 mm cone plate fixture with a cone angle of 1° (CP15-1, Anton Paar Pty. Ltd. Austria). […] All measurements were carried out in triplicate with the mean and standard deviation shown, calculated and plotted in GraphPad Prism.
smiles,measurement,setting,value
"N=C(N)NCCC[C@H](NC(=O)[C@H](CCCNC(=N)N)NC(=O)[C@H](Cc1c[nH]c2ccccc12)NC(=O)[C@@H]1CCCN1C(=O)[C@H](Cc1c[nH]c2ccccc12)NC(=O)OCC1c2ccccc2-c2ccccc21)C(N)=O [P-Priscilicidin, Fmoc-WPWRR-NH2] (Fmoc-WPWRR-NH2)",MIC E. faecium,E. faecium,61 µM
same,Dead %,[1]; 12 µM peptide,33%
same,Live %,[1]; 12 µM peptide,67%
same,Dead %,[1]; 24 µM peptide,95%
same,Live %,[1]; 24 µM peptide,4%
same,Dead %,[1]; 49 µM peptide,98%
same,Live %,[1]; 49 µM peptide,2%
same,Dead %,[1]; 98 µM peptide,98%
same,Live %,[1]; 98 µM peptide,1%
same,Dead %,[1]; 196 µM peptide,98%
same,Live %,[1]; 196 µM peptide,2%
same,Dead %,E. coli; 12 µM peptide,2%
same,Live %,E. coli; 12 µM peptide,93%
same,Dead %,E. coli; 24 µM peptide,33%
same,Live %,E. coli; 24 µM peptide,57%
same,Dead %,E. coli; 49 µM peptide,48%
same,Live %,E. coli; 49 µM peptide,33%
same,Dead %,E. coli; 98 µM peptide,44%
same,Live %,E. coli; 98 µM peptide,35%
same,Dead %,E. coli; 196 µM peptide,89%
same,Live %,E. coli; 196 µM peptide,2%
same,"FACS minimum concentration showing over 90% dead microbes, E. coli",E. coli,196 µM
same,Dead %,[2]; 12 µM peptide,5%
same,Live %,[2]; 12 µM peptide,95%
same,Dead %,[2]; 24 µM peptide,7%
same,Live %,[2]; 24 µM peptide,95%
same,Dead %,[2]; 98 µM peptide,83%
same,Live %,[2]; 98 µM peptide,19%
same,Dead %,[2]; 196 µM peptide,97%
same,Live %,[2]; 196 µM peptide,4%
same,"FACS minimum concentration showing over 90% dead microbes, S. aureus Methicillin resistant",[2],196 µM
same,Interpretation for peptide assembly according to MD,"[3]; 1 % wt in water, 30 days after mixing",monomer/globular oligomer
same,Interpretation for peptide assembly according to MD,"[3]; 1 % wt in water, time after mixing 0",monomer/globular oligomer
same,Interpretation for peptide assembly according to MD,"[3]; 5 % wt in water, 30 days after mixing",monomer/globular oligomer
same,Interpretation for peptide assembly according to MD,"[3]; 5 % wt in water, time after mixing 0",monomer/globular oligomer
same,Interpretation for peptide assembly according to MD,"[3]; 10 % wt in water, 30 days after mixing",monomer/globular oligomer
same,Interpretation for peptide assembly according to MD,"[3]; 10 % wt in water, time after mixing 0",monomer/globular oligomer
same,Nanostructures imaged by electron microscopy,"[4]; 10% wt in water, 1 month incubation, in coexistence with globular oligomers",nanoribbons
same,State of aqueous samples (rheology summary),"[4]; peptide in water, oscillatory rheology G'/G''",colloidal solutions of low viscosity
